Columns and labels:
Format in all cases: in vivo, human
participants with SSc-RP [1] = assay: Average duration of weekly RP attacks (minutes), patient diary
Source text: The absolute change in average duration of weekly RP attacks from baseline to the end of each dosing period was and will be a secondary outcome variable. The sponsor-developed participant-informed diary was and will be used to record data. Average duration of weekly RP attacks is defined as the total duration of RP attacks divided by total number of RP attacks within the last 7 days of each dosing period. Total duration of RP attacks during the last 7 days of screening period divided by the total number of RP attacks will be used as baseline for the analysis of all periods. The variable will be calculated similar to frequency data as before.

participants with SSc-RP [2] = assay: SHAQ - Visual Analog Scale - Raynaud's; parameters: SHAQ Visual Analogue Scale - Raynaud's, In-Clinic Visit (Day 12), Mean / SHAQ Visual Analogue Scale - Raynaud's, In-Clinic Visit (Day 12), Median / SHAQ Visual Analogue Scale - Raynaud's: In-Clinic Visit (Day 12), Median: scale not given here; settings: for % change VAS Raynauds: SHAQ, mITT Part A
Source text: The SHAQ includes a Raynaud's VAS, which will be reported at screening and each in-clinic visit. The absolute change in Raynaud-VAS, assessed by the participants response to the SHAQ question ‘In the past 7 days, how much have your Raynaud's interfered with your daily activities?’ at baseline and the end of each dosing period will be calculated similar to frequency data as before.
The standard, validated, patient reported outcome measures tool for SSc patients, the SHAQ, was collected at the time points specified in the study schedules (FIG. 2 and FIGS. 4A and 4B) to assess the participant's quality of life. The SHAQ included a Raynaud's VAS that will also be reported separately.

participants with SSc-RP [3] = assay: Average pain score recorded during weekly RP attacks (11-point Likert scale); settings: for Average Pain Score Change From Baseline [Mean (SD)]: Table G
Source text: The absolute change in average pain score (11-point Likert scale) of weekly RP attacks from baseline to the end of each Dosing Period will be a secondary outcome variable. The sponsor-developed participant-informed diary will be used to record data. The average pain score of weekly RP attacks is defined as the total pain scores divided by total number of RP attacks within the last 7 days of each dosing period. Average of the last 7 days of screening assessments will be used as baseline for the analysis of all periods. The variable will be calculated similar to frequency data as before.

[4] = Pooled Cilnidipine 20 mg and Cilnidipine 20 mg + Tadalafil 5 mg, by Baseline RCS, second subgroup of table, ITT Population - Part A
[5] = Pooled Cilnidipine 20 mg and Cilnidipine 20 mg + Tadalafil 5 mg, last 7 days of dosing period, ITT Part A
[6] = Pooled Cilnidipine, Excluding Outliers, ITT Population - Part A
[7] = Pooled Cilnidipine, Excluding Outliers, by Baseline RCS, first RCS subgroup of table (not named), ITT Population - Part A
[8] = Pooled Cilnidipine, ITT Population - Part A
[9] = Pooled Cilnidipine, ITT Population - Part A, last 7 days of dosing period
[10] = Pooled Cilnidipine, by Baseline RCS, first RCS subgroup of table (not named), ITT Population - Part A
[11] = Pooled Cilnidipine, by Baseline RCS, first subgroup of table, ITT Population - Part A
[12] = Pooled Cilnidipine, excluding outliers, 1st baseline RCS subgroup, ITT Part A
[13] = Any Cilnidipine (N = 17), Day 12, PP Population, Part A
[14] = Cilnidipine 20 mg (N = 4), Day 12, PP Population, Part A
[15] = Pooled Cilnidipine 10 mg and Cilnidipine 10 mg + Tadalafil 5 mg (N = 9), Day 12, PP Population, Part A
[16] = Pooled Cilnidipine 20 mg and Cilnidipine 20 mg + Tadalafil 5 mg (N = 7), Modified ITT Population - Part A
[17] = Pooled Cilnidipine (N = 8), Day 12, PP Population, Part A
[18] = cilnidipine 10 mg (combination: + tadalafil 5 mg)
[19] = cilnidipine 20 mg (combination: + tadalafil 5 mg)

## COCCOC(=O)C1=C(C)NC(C)=C(C(=O)OC/C=C/c2ccccc2)C1c1cccc([N+](=O)[O-])c1 (centres unmarked) [Cilnidipine]
Participants with SSc-RP [1]; [4]
  Average Duration of Weekly RP Attacks (All Attacks), Percent Change from Baseline, Mean: −23.33%
  Average Duration of Weekly RP Attacks (All Attacks), Percent Change from Baseline, Median: −23.33%
Participants with SSc-RP [1]; [5]
  Average Duration of weekly symptomatic RP attacks, Mean: 27.98 min
  Average Duration of weekly symptomatic RP attacks, Median: 22.96 min
Participants with SSc-RP [1]; Pooled Cilnidipine (n = 7)
  Duration (change): 20%
Participants with SSc-RP [1]; [6]
  Average Duration of weekly symptomatic RP attacks, Mean: 21.70 min
  Average Duration of weekly symptomatic RP attacks, Median: 30.45 min
  Percent Change from Baseline in average duration of weekly symptomatic RP attacks, Median: −34.60%
Participants with SSc-RP [1]; [7]
  Average Duration of weekly symptomatic RP attacks, Mean: 21.70 min
  Average Duration of weekly symptomatic RP attacks, Median: 30.45 min
  Change from Baseline in average duration of weekly symptomatic RP attacks, Mean: -7.67 min
  Change from Baseline in average duration of weekly symptomatic RP attacks, Median: -10.33 min
  Percent Change from Baseline in average duration of weekly symptomatic RP attacks, Mean: −32.23%
  Percent Change from Baseline in average duration of weekly symptomatic RP attacks, Median: −34.60%
Participants with SSc-RP [1]; Pooled Cilnidipine, ITT Part A
  Average Duration of Weekly Symptomatic RP Attacks Change from Baseline, Mean: -7.67 min
  Average Duration of Weekly Symptomatic RP Attacks Change from Baseline, Median: -10.33 min
  Average Duration of Weekly Symptomatic RP Attacks Percent Change from Baseline, Mean: −32.23%
  Average Duration of Weekly Symptomatic RP Attacks Percent Change from Baseline, Median: −34.60%
Participants with SSc-RP [1]; [8]
  Average Duration of Weekly RP Attacks (All Attacks), Change from Baseline, Mean: -3.55 min
  Average Duration of Weekly RP Attacks (All Attacks), Change from Baseline, Median: -7.63 min
  Average Duration of Weekly RP Attacks (All Attacks), Percent Change from Baseline, Mean: −23.71%
  Average Duration of Weekly RP Attacks (All Attacks), Percent Change from Baseline, Median: −21.20%
Participants with SSc-RP [1]; [9]
  Average Duration of Weekly RP Attacks (All Attacks), Mean: 21.66 min
  Average Duration of Weekly RP Attacks (All Attacks), Median: 30.45 min
Participants with SSc-RP [1]; [10]
  Average Duration of weekly symptomatic RP attacks, Mean: 21.70 min
  Average Duration of weekly symptomatic RP attacks, Median: 30.45 min
  Change from Baseline in average duration of weekly symptomatic RP attacks, Mean: -7.67 min
  Change from Baseline in average duration of weekly symptomatic RP attacks, Median: -10.33 min
  Percent Change from Baseline in average duration of weekly symptomatic RP attacks, Mean: −32.23%
  Percent Change from Baseline in average duration of weekly symptomatic RP attacks, Median: −34.60%
Participants with SSc-RP [1]; [11]
  Average Duration of Weekly RP Attacks (All Attacks), Mean: 21.66 min
  Average Duration of Weekly RP Attacks (All Attacks), Median: 30.45 min
Participants with SSc-RP [1]; [12]
  Average duration of weekly RP attacks, Change from Baseline, Median: -7.63 min
  Average duration of weekly RP attacks, Percent Change from Baseline, Mean: −23.71%
Participants with SSc-RP [2]; [13]
  SHAQ Visual Analogue Scale - Raynaud's, Change from Baseline, Mean (SD): −0.696 (1.3935)
  SHAQ Visual Analogue Scale - Raynaud's, Change from Baseline, Median: −0.300
  SHAQ Visual Analogue Scale - Raynaud's, In-Clinic Visit (Day 12), Mean (SD): 2.022 (1.8357)
  SHAQ Visual Analogue Scale - Raynaud's, In-Clinic Visit (Day 12), Median: 1.400
  SHAQ Visual Analogue Scale - Raynaud's, Percent Change from Baseline, Mean (SD): −20.44 (55.098) %
  SHAQ Visual Analogue Scale - Raynaud's, Percent Change from Baseline, Median: −33.33%
Participants with SSc-RP [2]; Cilnidipine 10 mg (N = 4), Day 12, PP Population, Part A
  SHAQ Visual Analogue Scale - Raynaud's, Change from Baseline, Median: 0.350
Participants with SSc-RP [2]; [14]
  SHAQ Visual Analogue Scale - Raynaud's, Change from Baseline, Mean: −1.200
  SHAQ Visual Analogue Scale - Raynaud's, In-Clinic Visit (Day 12), Median: 1.250
Participants with SSc-RP [2]; Cilnidipine 20 mg (n = 3)
  % change VAS Raynauds: −49%
Participants with SSc-RP [2]; Cilnidipine 20 mg, Day 12 vs Baseline, PP Population Part A, sensitivity analysis
  SHAQ Visual Analogue Scale - Raynaud's, Percent Change from Baseline, Median: −38.67%
Participants with SSc-RP [2]; [15]
  SHAQ Visual Analogue Scale - Raynaud's, Change from Baseline, Mean: −0.414
  SHAQ Visual Analogue Scale - Raynaud's, Change from Baseline, Median: −0.100
  SHAQ Visual Analogue Scale - Raynaud's, In-Clinic Visit (Day 12), Median: 2.600
  SHAQ Visual Analogue Scale - Raynaud's, Percent Change from Baseline, Mean: −9.97%
  SHAQ Visual Analogue Scale - Raynaud's, Percent Change from Baseline, Median: −4.39%
Participants with SSc-RP [2]; Pooled Cilnidipine 20 mg and Cilnidipine 20 mg + Tadalafil 5 mg (N = 7), Day 12, Modified ITT Population - Part A
  SHAQ Visual Analogue Scale - Raynaud's, Change from Baseline, Median: −0.300
Participants with SSc-RP [2]; [16]
  SHAQ Visual Analogue Scale - Raynaud's, In-Clinic Visit (Day 12), Mean: 1.300
  SHAQ Visual Analogue Scale - Raynaud's, In-Clinic Visit (Day 12), Median: 0.600
Participants with SSc-RP [2]; Pooled Cilnidipine 20 mg and Cilnidipine 20 mg + Tadalafil 5 mg (N = 8), Day 12, PP Population, Part A
  SHAQ Visual Analogue Scale - Raynaud's, In-Clinic Visit (Day 12), Median: 0.850
Participants with SSc-RP [2]; [17]
  SHAQ Visual Analogue Scale - Raynaud's, Change from Baseline, Mean (SD): −0.438 (1.2094)
  SHAQ Visual Analogue Scale - Raynaud's, In-Clinic Visit (Day 12), Mean: 1.900
  SHAQ Visual Analogue Scale - Raynaud's, In-Clinic Visit (Day 12), Mean (SD): 1.900 (1.6861)
  SHAQ Visual Analogue Scale - Raynaud's, Percent Change from Baseline, Mean (SD): −18.62 (75.571) %
Participants with SSc-RP [2]; Pooled Cilnidipine (n = 7)
  % change VAS Raynauds: −17%
Participants with SSc-RP [2]; Sensitivity Analysis (diagnosis of SSc), Modified ITT, Part A, Day 12, Any Cilnidipine (N = 14)
  SHAQ Visual Analogue Scale - Raynaud's: Change from Baseline, Median: −0.300
Participants with SSc-RP [2]; Sensitivity Analysis (diagnosis of SSc), Modified ITT, Part A, Day 12, Pooled Cilnidipine (N = 6)
  SHAQ Visual Analogue Scale - Raynaud's: Percent Change from Baseline, Mean: −18.64%
Participants with SSc-RP [2]; Sensitivity Analysis (diagnosis of SSc), Modified ITT, Part A, Day 12, arms Cilnidipine 10 mg, Tadalafil 5 mg, Cilnidipine 10 mg + Tadalafil 5 mg
  SHAQ Visual Analogue Scale - Raynaud's: In-Clinic Visit (Day 12), Median: 2.600
Participants with SSc-RP [2]; Sensitivity Analysis (diagnosis of SSc), Modified ITT, Part A, Day 12, arms Cilnidipine 20 mg, Cilnidipine 20 mg + Tadalafil 5 mg
  SHAQ Visual Analogue Scale - Raynaud's: In-Clinic Visit (Day 12), Median: 1.100
Participants with SSc-RP [2]; [18]
  VAS Raynaud's Change from Baseline Max: 1.50
  VAS Raynaud's Change from Baseline Median: 0.350
  VAS Raynaud's Change from Baseline Min: −0.90
  VAS Raynaud's Change from Baseline Q1: −0.500
  VAS Raynaud's Change from Baseline Q3: 1.150
  VAS Raynaud's Day 12 Max: 4.30
  VAS Raynaud's Day 12 Median: 1.700
  VAS Raynaud's Day 12 Min: 0.00
  VAS Raynaud's Day 12 Q1: 0.400
  VAS Raynaud's Day 12 Q3: 3.450
  VAS Raynaud's Percent Change from Baseline Max: 136.4%
  VAS Raynaud's Percent Change from Baseline Mean: 11.36%
  VAS Raynaud's Percent Change from Baseline Median: −2.27%
  VAS Raynaud's Percent Change from Baseline Min: −100.0%
  VAS Raynaud's Percent Change from Baseline Q1: −100.00%
Participants with SSc-RP [2]; [19]
  VAS Raynaud's Change from Baseline Max: −0.30
  VAS Raynaud's Change from Baseline Mean: −1.267
  VAS Raynaud's Change from Baseline Median: −1.100
  VAS Raynaud's Change from Baseline Min: −2.40
  VAS Raynaud's Change from Baseline Q1: −2.400
  VAS Raynaud's Change from Baseline Q3: −0.300
  VAS Raynaud's Day 12 Max: 1.40
  VAS Raynaud's Day 12 Median: 1.100
  VAS Raynaud's Day 12 Min: 0.60
  VAS Raynaud's Day 12 Q1: 0.600
  VAS Raynaud's Day 12 Q3: 1.400
  VAS Raynaud's Percent Change from Baseline Mean: −48.63%
  VAS Raynaud's Percent Change from Baseline Median: −44.00%
  VAS Raynaud's Percent Change from Baseline Min: −68.6%
  VAS Raynaud's Percent Change from Baseline Q1: −68.57%
  VAS Raynaud's Percent Change from Baseline Q3: −33.33%
Participants with SSc-RP [3]; Cilnidipine 10 mg (n = 4)
  Average Pain Score Change From Baseline [Mean (SD)]: 0.47
Participants with SSc-RP [3]; Cilnidipine 20 mg (n = 3)
  Average Raynaud's Pain (change): 12%
  Average Pain Score Change From Baseline [Mean (SD)]: −0.47
Participants with SSc-RP [3]; Pooled Cilnidipine (n = 7)
  Average Raynaud's Pain (change): −27%
